{"source": "patent US20040121357A1", "about": "“Artificial endonuclease” (priority 2004, published 2004)", "molecules": {"B1": {"name": "P3 (peptide)", "peptide": "TERRRQQLDKDGDGTIDEREIKIHFQNKRAKIK", "modifications": "also: Eu(III) complex, Eu(III) organizes two peptides into back-to-back dimer", "notes": "In the dimerization experiments it stood with Eu(III) (EuCl3); The entry describes the monomer; also called EuP3; peptide P3"}, "B2": {"name": "P4a (peptide)", "peptide": "TERRRFDKDGNGYISAAELRHVKIWFQNKRAKIK", "modifications": "also: Eu(III) complex, dimer EuP4a2", "notes": "The entry describes the monomer; also called EuP4a; EuP4a2 (dimer)"}}, "key": {"[1]": {"system": "^32P-labeled fragment of pBR322", "test": "Cleavage of 32P-labeled DNA fragment, acrylamide gel electrophoresis", "format": "biochemical", "settings": "40 μM Ce^4+, 37° C. overnight", "protocol": "FIG. 10. Sequence specificity of artificial endonucleases. […] Controls (water) were conducted to measure background cleavage. […] Minor products run with Maxam-Gilbert lanes.\nSequence Selective DNA Cleavage. […] This cleavage is not dependent on the strain inherent in supercoiled plasmid, as cleavage of linearized ^32P-labeled DNA oligonucleotides was observed as well. Labeled fragments were incubated with Ce(NH3)6(NO3)4 and varying concentrations of peptides P3 or P3W at 37° C. overnight and analyzed by acrylamide gel electrophoresis (FIG. 10). Cleavage was concentration dependent, and distinct between metallopeptides."}, "[2]": {"test": "Hydrolysis of bis-nitrophenylphosphate (BNPP) followed spectrophotometrically at 400 nm", "format": "biochemical", "settings": "for Rates (K(obs)) of BNPP cleavage: 500 μM BNPP, 37° C.", "description": "To test hydrolytic activity, the hydrolysis of binitrophenylphosphate (BNPP) is followed. The absorbance increase at 400 nm is due to liberated 4-nitrophenolate which can be monitored over time to give rate constants. The rate reflects the relative accessibility and reactivity of the active site, and can be compared to the rates observed for the hydrolytically active peptide or polypeptide.\nHydrolytic Phosphate Cleavage. Because the EF-Hand is physiologically strictly a structural motif, an isolated Ca-binding loop's ability to affect hydrolytic cleavage was addressed. The hydrolysis of bis-nitrophenylphosphate (BNPP) was followed spectrophotometrically under turnover conditions. The absorbance increase at 400 nm due to liberated 4-nitrophenolate was observed over the initial 10-14 hours of the reaction (<10% BNPP converted). […] Plots of absorbance vs. time were converted to concentration units (ε=18,500 M^−1 cm^−1) to give first order rate constants (Sardesai et al., 1994)."}, "[3]": {"system": "supercoiled plasmid DNA (pBR322)", "test": "DNA gel shift assay (agarose gel electrophoresis)", "format": "binding", "settings": "for Gel shift / affinity for supercoiled plasmid DNA (in words): 5-25 μM ligand, 15 minutes, room temperature", "protocol": "DNA Gel Shift Assays. The affinity of EuP3, EuP2, and each free peptide for supercoiled plasmid DNA was examined by agarose gel electrophoresis. Plasmid (pBR322, New England Biolabs, Inc.) was incubated for 15 minutes at room temperature with increasing concentrations of each ligand (5-25 μM), prior to the addition of loading dye. Each lane contained 1 μg plasmid (50 μM base pairs) in 10 mM Tris buffer at pH 8.0. […] The interaction of ligand with supercoiled plasmid (type I) can be observed if run under conditions where the DNA-ligand interactions are not disturbed during electrophoresis. Supercoiled pBR322 was chosen as a standard plasmid, and was incubated for 15 minutes with EuCl3, EuP3, EuP2, or free peptide prior to electrophoresis. This small, 4,361 bp plasmid contains three [NT] sequences, and eight […] sequences, partial target sequences for engrailed homeodomain. In the absence of 0.1 M EDTA (normally added prior to electrophoresis to quench hydrolytic cleavage assays) and with short incubation times to minimize metal-catalyzed cleavage, a gel shift can be observed. […] From quantified concentration-dependent gel shift data, an estimate of the binding affinity of EuP3 can be made. Gels with increasing Eu-peptide concentrations (5 to 25 μM in each set) were quantified (ImageQuant; Molecular Simulations), and average band volumes were plotted versus concentration. […] Each graphed point represents data averaged from three gel experiments."}, "[4]": {"test": "Circular dichroism titration of peptides with Eu(III) (incl. TFE helix induction)", "settings": "initial portion of the curve (0-50 μM Eu(III)); read-out: Metal binding affinity (K1, Kd) estimated from CD titration"}, "supercoiled plasmid DNA": {"system": "supercoiled plasmid DNA", "test": "Cleavage of supercoiled plasmid DNA, agarose gel electrophoresis", "format": "biochemical", "settings": "for Dependence of cleavage activity on concentration (in words): increasing metallopeptide concentration", "protocol": "FIG. 8. […] Samples containing 1 μg plasmid (about 60 μM b.p.) in 10 mM Tris buffer, pH=7.0, were incubated for 48 hours at 37° C. Reactions were quenched by the addition of 0.5 M EDTA to a final concentration of 10 mM, followed by addition of 100 mM KCl. The reaction mixtures were then treated with Amberlyst cation exchange resin prior to electrophoresis. Lane 1: pUC19 DNA control; lanes 2-5: DNA plus increasing concentrations of EuC13 (20, 30, 50 and 100 μM); lanes 6-9: DNA plus increasing concentrations of free P3 (20, 30, 50 and 100 μM); lanes 10-15: DNA plus increasing concentrations of 1:1 Eu:P3 (10, 20, 30, 40, 50 and 100 μM).\nThe conversion of supercoiled plasmid (type I) to open circular (type II), linear (type III), or smaller fragments was monitored by agarose gel electrophoresis. Because the synthetic peptides bind strongly to DNA, thus preventing the observation of products, the peptides were chelated prior to electrophoresis (Falke et al., 1994). At the point each reaction was quenched (0.1 M EDTA), a suspension of neutral, washed, cation resin (Amberlyst, 10-20 μL) was incubated with each sample for 30 minutes, spun down, and the supernatent loaded into wells. After 24 hours of reaction (incubated at 37° C.), the concentration-dependent formation of open circular plasmid was observed (FIG. 8). […] Over a 10-300 μM EuP3 gradient, nicking occurred from 10-150 μM, with the greatest amount of cleavage at 30 μM EuP3."}, "[5]": {"target": "the molecule itself", "test": "dimerization constant of Eu(III)-bound P3 (self-association); isothermal titration microcalorimetry"}, "[6]": {"target": "the molecule itself", "test": "dimerization constant (self-association) from CD titration of P3 with Eu(III), helicity at 222 nm", "protocol": "Circular Dichroism Titrations. The titration of P2 and P3 peptides with Eu(III) and Ca(II) was followed by circular dichroism spectroscopy on an Aviv 60DS spectrophotometer at 25° C. Samples (50 μM peptide) were scanned from 260 to 200 nm (0.1 mm pathlength cell, 1.0 nm bandwidth, 0.5 nm resolution), in 10 mM Tris(hydroxymethyl)aminomethane buffer (Tris; pH=7.8). Eu(III) and Ca(II) were added as the chlorides. Aliquots of 10 mM stock metal solutions were added to a maximum of 10 equivalents.\nThe secondary structure of P3 as a function of metal was followed by CD, calculating the % α-helicity from the molar ellipticity at 222 nm (100% helical=−31,500 deg cm² dmol⁻¹). With the addition of Eu(III) to P3, the helicity increases from 9 to 25%, showing enhanced structure correlated to metal-coordination. This increase in structure with added metal describes a curve which has an inflection point at approximately 1:1 Eu:P3, then continues to a 25% helical metal-saturated form. […] A second structural change, correlating to the discrete back-to-back dimerization which has been well characterized for similar EF-Hand peptides systems occurs at Kdim about 80 μM (Shaw et al., 1991; Wójcik et al., 1997; Clarke et al., 1993; Shaw et al., 1990; Maurer et al., 1995). […]"}, "[7]": {"target": "the molecule itself", "test": "dimerization constant of Eu(III)-bound P4a (self-association); called 'measured', method not stated"}, "[8]": {"settings": "10 μM Eu/10 μM peptide, pH 7.7, 10 mM Tris"}, "[9]": {"settings": "25 μM Eu/25 μM peptide, pH 7.7, 10 mM Tris"}, "[10]": {"settings": "25 μM Eu/50 μM peptide, pH 7.7, 10 mM Tris"}, "[11]": {"settings": "10-300 μM EuP3 gradient, 37° C."}}, "note": "“Also recorded” adds a separate entry of the source. Where no end group is shown, it is not given here."}
{"molecule": "O=[N+]([O-])[O-].O=[N+]([O-])[O-].O=[N+]([O-])[O-].O=[N+]([O-])[O-].O=[N+]([O-])[O-].O=[N+]([O-])[O-].[Ce+4].[NH4+].[NH4+]", "note": "[Ce^4+, (NH4)2 Ce(NO3)6]", "values": [{"measurement": "Regioselectivity of cleavage: termini produced", "setting": "[1]", "value": "both 3′ and 5′ termini"}]}
{"molecule": "[Cl][Eu]([Cl])[Cl]", "note": "[EuCl3, reference compound]", "values": [{"measurement": "Rates (K(obs)) of BNPP cleavage", "setting": "[2]; 10 μM Eu/0 μM peptide, pH 7.7, 5 mM Tris", "value": "5.2 ± 0.6", "unit": "s^−1 × 10^7"}, {"measurement": "Rates (K(obs)) of BNPP cleavage", "setting": "[2]; 10 μM Eu/0 μM peptide, pH 7.7, 10 mM Tris", "value": 1.4, "unit": "s^−1 × 10^7"}, {"measurement": "Rates (K(obs)) of BNPP cleavage", "setting": "[2]; 12 μM Eu/0 μM peptide, pH 7.7, 5 mM Tris", "value": "5.7 ± 0.3", "unit": "s^−1 × 10^7"}, {"measurement": "Rates (K(obs)) of BNPP cleavage", "setting": "[2]; 15 μM Eu/0 μM peptide, pH 7.7, 10 mM Tris", "value": 2.0, "unit": "s^−1 × 10^7"}, {"measurement": "Rates (K(obs)) of BNPP cleavage", "setting": "[2]; 20 μM Eu/0 μM peptide, pH 7.7, 5 mM Tris", "value": "19 ± 3", "unit": "s^−1 × 10^7"}, {"measurement": "Rates (K(obs)) of BNPP cleavage", "setting": "[2]; 20 μM Eu/0 μM peptide, pH 7.7, 10 mM Tris", "value": 2.7, "unit": "s^−1 × 10^7"}, {"measurement": "Gel shift / affinity for supercoiled plasmid DNA (in words)", "setting": "[3]", "value": "not"}]}
{"molecule": "EuP3: Eu(III)-bound peptide P3 (1:1 Eu-peptide) (TERRRQQLDKDGDGTIDEREIKIHFQNKRAKIK)", "values": [{"measurement": "BNPP catalysis compared with free Eu(III) (in words)", "setting": "[2]", "value": "may not be as fast as free Eu(III) catalysis"}, {"measurement": "Rates (K(obs)) of BNPP cleavage", "setting": "[2]; [8]", "value": 6.0, "unit": "s^−1 × 10^7"}, {"measurement": "Rates (K(obs)) of BNPP cleavage", "setting": "[2]; [9]", "value": 7.3, "unit": "s^−1 × 10^7"}, {"measurement": "Rates (K(obs)) of BNPP cleavage", "setting": "[2]; [10]", "value": 20.6, "unit": "s^−1 × 10^7"}, {"measurement": "Rates (K(obs)) of BNPP cleavage", "setting": "[2]; 50 μM Eu/50 μM peptide, pH 7.7, 5 mM Tris", "value": "17.5 ± 4", "unit": "s^−1 × 10^7"}, {"measurement": "Rates (K(obs)) of BNPP cleavage", "setting": "[2]; 50 μM Eu/100 μM peptide, pH 7.7, 5 mM Tris", "value": "11.5 ± 4", "unit": "s^−1 × 10^7"}, {"measurement": "Concentration causing a gel shift of supercoiled plasmid DNA", "setting": "[3]; 50 μM base pairs", "value": "≥ 10", "unit": "µM"}, {"measurement": "Gel shift / affinity for supercoiled plasmid DNA (in words)", "setting": "[3]", "value": "significant affinity for supercoiled plasmid DNA; also recorded: gel shift and disappearance of type I plasmid occurs; also recorded: DNA-binding affinity in the micromolar regime; also recorded: disappearance of type I band"}, {"measurement": "Estimate of DNA binding affinity from quantified gel shift data", "setting": "[3]; disappearance of type I band, 5 to 25 μM, average of three gels", "value": "~20", "unit": "µM"}, {"measurement": "Kd", "setting": "[4]", "value": "≤ 20", "unit": "µM"}, {"measurement": "Concentration range in which nicking occurred", "setting": "supercoiled plasmid DNA; [11]", "value": "10 to 150", "unit": "µM"}, {"measurement": "Concentration with the greatest amount of cleavage", "setting": "supercoiled plasmid DNA; [11]", "value": 30, "unit": "µM"}, {"measurement": "Cleavage of supercoiled plasmid DNA (in words)", "setting": "supercoiled plasmid DNA; 37° C., pUC19 for EuP3, Eu(III) and Ce(IV) complexes for P3W", "value": "catalyzes the cleavage of supercoiled, double-stranded DNA; also recorded: cleavage of pUC19 plasmid DNA"}, {"measurement": "Dependence of cleavage activity on concentration (in words)", "setting": "supercoiled plasmid DNA", "value": "falls off with increasing concentration"}]}
{"molecule": "EuP4a: Eu(III)-bound peptide P4a (TERRRFDKDGNGYISAAELRHVKIWFQNKRAKIK)", "values": [{"measurement": "Rates (K(obs)) of BNPP cleavage", "setting": "[2]; [8]", "value": 11.3, "unit": "s^−1 × 10^7"}, {"measurement": "Rates (K(obs)) of BNPP cleavage", "setting": "[2]; [9]", "value": 56.3, "unit": "s^−1 × 10^7"}, {"measurement": "Rates (K(obs)) of BNPP cleavage", "setting": "[2]; [10]", "value": 62.0, "unit": "s^−1 × 10^7"}, {"measurement": "Rates (K(obs)) of BNPP cleavage", "setting": "[2]; 50 μM Eu/50 μM peptide, pH 7.7, 10 mM Tris", "value": 149.5, "unit": "s^−1 × 10^7"}, {"measurement": "Rates (K(obs)) of BNPP cleavage", "setting": "[2]; 50 μM Eu/100 μM peptide, pH 7.7, 10 mM Tris", "value": 212.0, "unit": "s^−1 × 10^7"}, {"measurement": "Dependence of cleavage activity on concentration (in words)", "setting": "supercoiled plasmid DNA", "value": "does not"}]}
{"molecule": "B1", "values": [{"measurement": "Kd", "setting": "[5]", "value": "≥ 80", "unit": "µM"}, {"measurement": "Kd", "setting": "[6]", "value": "~80", "unit": "µM"}]}
{"molecule": "B2", "values": [{"measurement": "Kd", "setting": "[7]", "value": "≥ 300", "unit": "µM"}]}
